Laboratory results published in ChEMBL document CHEMBL3885881, “DrugMatrix”.

Species on record: Rattus norvegicus
Assay: DrugMatrix - Regimen: Daily Repeat
Type: toxicity, organism-based, Sprague-Dawley
Parameters: regimen Daily Repeat, gender Male, age 6-8 weeks
Conditions: in vivo, sc, route subcutaneous, […]; for ABSOLUTE BASOPHIL / ABSOLUTE EOSINOPHIL / ABSOLUTE LYMPHOCYTE / ABSOLUTE MONOCYTE / ABSOLUTE SEGMENTED NEUTROPHIL / BASOPHIL / EOSINOPHIL / ERYTHROCYTE COUNT / HEMATOCRIT / HEMOGLOBIN / LEUKOCYTE COUNT / LYMPHOCYTE / MEAN CORPUSCULAR HEMOGLOBIN / MEAN CORPUSCULAR HEMOGLOBIN CONCENTRATION / MEAN CORPUSCULAR VOLUME / MONOCYTE / NEUTROPHIL / NUCLEATED RED BLOOD CELLS / PLATELET COUNT: tissue Blood; for ALANINE AMINOTRANSFERASE / ALBUMIN / ALKALINE PHOSPHATASE / ASPARTATE AMINOTRANSFERASE / BLOOD UREA NITROGEN / CARBON DIOXIDE / CHLORIDE / CHOLESTEROL / CREATINE PHOSPHOKINASE / CREATININE / GLUCOSE / LACTATE DEHYDROGENASE / LIPASE / PHOSPHORUS / POTASSIUM / SODIUM / TOTAL BILIRUBIN / TOTAL PROTEIN / URIC ACID: tissue Plasma
[1] = 0 mg/kg, 72 h, dose level Control, time 3 day
[2] = 0 mg/kg, 120 h, dose level Control, time 5 day
[3] = 27 mg/kg, 72 h, dose level Low, time 3 day

In the case of `Clc1ccc(CSC(Cn2ccnc2)c2ccc(Cl)cc2Cl)cc1` (centres undefined) [SULCONAZOLE], the “ABSOLUTE BASOPHIL” value [1] is reported as 0 CELLS/uL, the “ABSOLUTE EOSINOPHIL” value [1] is reported as 42.67 CELLS/uL and the “ABSOLUTE LYMPHOCYTE” value [1] is reported as 10202 CELLS/uL. The “ABSOLUTE MONOCYTE” value [1] was 261.5 CELLS/uL, the “ABSOLUTE SEGMENTED NEUTROPHIL” value [1] was 2193.83 CELLS/uL and the BASOPHIL [1] was 0%. The EOSINOPHIL [1] was 0.33%, the “ERYTHROCYTE COUNT” value [1] was 5.63 x10E6/uL and the HEMATOCRIT [1] was 35.35%. For the same molecule, the HEMOGLOBIN [1] was 13.07 G/DL, the “LEUKOCYTE COUNT” value [1] was 12.7 x10E3/uL and the LYMPHOCYTE [1] was 81.17%. For the same molecule, the “MEAN CORPUSCULAR HEMOGLOBIN” value [1] was 23.23 pg, the “MEAN CORPUSCULAR HEMOGLOBIN CONCENTRATION” value [1] was 36.97 G/DL and the “MEAN CORPUSCULAR VOLUME” value [1] was 62.82 fL. The MONOCYTE [1] was 2%, the NEUTROPHIL [1] was 16.5% and the “NUCLEATED RED BLOOD CELLS” value [1] was 0 /100WBC. The “PLATELET COUNT” value [1] was 1180.33 x10E3/uL, the “ALANINE AMINOTRANSFERASE” value [1] was 48.67 u/L and the ALBUMIN [1] was 4.08 G/DL. The “ALKALINE PHOSPHATASE” value [1] was 360.67 u/L, the “ASPARTATE AMINOTRANSFERASE” value [1] was 85.5 u/L and the “BLOOD UREA NITROGEN” value [1] was 17.83 mg/dL. The “CARBON DIOXIDE” value [1] was 26.17 mmol/L, the CHLORIDE [1] was 101.83 MEQ/L and the CHOLESTEROL [1] was 71 mg/dL. For the same molecule, the “CREATINE PHOSPHOKINASE” value [1] was 515.17 u/L, the CREATININE [1] was 0.22 mg/dL and the GLUCOSE [1] was 192.5 mg/dL. For the same molecule, the “LACTATE DEHYDROGENASE” value [1] was 214.67 u/L, the LIPASE [1] was 8.5 u/L and the PHOSPHORUS [1] was 12.95 mg/dL. For the same molecule, the POTASSIUM [1] was 6.39 MEQ/L, the SODIUM [1] was 142.38 MEQ/L and the “TOTAL BILIRUBIN” value [1] was 0.18 mg/dL. For the same molecule, the “TOTAL PROTEIN” value [1] was 5.95 G/DL, the “URIC ACID” value [1] was 1.83 mg/dL and the “ABSOLUTE BASOPHIL” value [2] was 0 CELLS/uL. The “ABSOLUTE EOSINOPHIL” value [2] was 188.5 CELLS/uL, the “ABSOLUTE LYMPHOCYTE” value [2] was 12360.83 CELLS/uL and the “ABSOLUTE MONOCYTE” value [2] was 64.33 CELLS/uL. The “ABSOLUTE SEGMENTED NEUTROPHIL” value [2] was 1986.33 CELLS/uL, the BASOPHIL [2] was 0% and the EOSINOPHIL [2] was 1.33%. The “ERYTHROCYTE COUNT” value [2] was 5.52 x10E6/uL, the HEMATOCRIT [2] was 35.82% and the HEMOGLOBIN [2] was 13.25 G/DL. For the same molecule, the “LEUKOCYTE COUNT” value [2] was 14.6 x10E3/uL, the LYMPHOCYTE [2] was 84.5% and the “MEAN CORPUSCULAR HEMOGLOBIN” value [2] was 24.05 pg. For the same molecule, the “MEAN CORPUSCULAR HEMOGLOBIN CONCENTRATION” value [2] was 36.98 G/DL, the “MEAN CORPUSCULAR VOLUME” value [2] was 64.97 fL and the MONOCYTE [2] was 0.5%. The NEUTROPHIL [2] was 13.67%, the “NUCLEATED RED BLOOD CELLS” value [2] was 0 /100WBC and the “PLATELET COUNT” value [2] was 1297.83 x10E3/uL. The “ALANINE AMINOTRANSFERASE” value [2] was 51.17 u/L, the ALBUMIN [2] was 4.08 G/DL and the “ALKALINE PHOSPHATASE” value [2] was 393.17 u/L. For the same molecule, the “ASPARTATE AMINOTRANSFERASE” value [2] was 111 u/L, the “BLOOD UREA NITROGEN” value [2] was 18.17 mg/dL and the “CARBON DIOXIDE” value [2] was 25 mmol/L. The CHLORIDE [2] was 105.17 MEQ/L, the CHOLESTEROL [2] was 65.5 mg/dL and the “CREATINE PHOSPHOKINASE” value [2] was 911.5 u/L. The CREATININE [2] was 0.21 mg/dL, the GLUCOSE [2] was 183 mg/dL and the “LACTATE DEHYDROGENASE” value [2] was 189 u/L. It also gave an LIPASE [2] of 8.33 u/L, a PHOSPHORUS [2] of 12.78 mg/dL and a POTASSIUM [2] of 6.05 MEQ/L. The SODIUM [2] was 144.57 MEQ/L, the “TOTAL BILIRUBIN” value [2] was 0.25 mg/dL and the “TOTAL PROTEIN” value [2] was 5.83 G/DL. The “URIC ACID” value [2] was 1.58 mg/dL, the “ABSOLUTE BASOPHIL” value [3] was 0 CELLS/uL and the “ABSOLUTE EOSINOPHIL” value [3] was 84.67 CELLS/uL. The “ABSOLUTE LYMPHOCYTE” value [3] was 11847.67 CELLS/uL, the “ABSOLUTE MONOCYTE” value [3] was 101 CELLS/uL and the “ABSOLUTE SEGMENTED NEUTROPHIL” value [3] was 2233.33 CELLS/uL. The BASOPHIL [3] was 0%, the EOSINOPHIL [3] was 0.67% and the “ERYTHROCYTE COUNT” value [3] was 5.29 x10E6/uL. For the same molecule, the HEMATOCRIT [3] was 32.9%, the HEMOGLOBIN [3] was 12.1 G/DL and the “LEUKOCYTE COUNT” value [3] was 14.27 x10E3/uL. The LYMPHOCYTE [3] was 83.33%, the “MEAN CORPUSCULAR HEMOGLOBIN” value [3] was 22.9 pg and the “MEAN CORPUSCULAR HEMOGLOBIN CONCENTRATION” value [3] was 36.8 G/DL. For the same molecule, the “MEAN CORPUSCULAR VOLUME” value [3] was 62.23 fL, the MONOCYTE [3] was 0.67% and the NEUTROPHIL [3] was 15.33%. For the same molecule, the “NUCLEATED RED BLOOD CELLS” value [3] was 0 /100WBC, the “PLATELET COUNT” value [3] was 979.33 x10E3/uL and the “ALANINE AMINOTRANSFERASE” value [3] was 50.67 u/L. For the same molecule, the ALBUMIN [3] was 4.07 G/DL, the “ALKALINE PHOSPHATASE” value [3] was 355.67 u/L and the “ASPARTATE AMINOTRANSFERASE” value [3] was 89 u/L. The “BLOOD UREA NITROGEN” value [3] was 18 mg/dL, the “CARBON DIOXIDE” value [3] was 26.33 mmol/L and the CHLORIDE [3] was 105.67 MEQ/L. The CHOLESTEROL [3] was 74.33 mg/dL, the “CREATINE PHOSPHOKINASE” value [3] was 269.33 u/L and the CREATININE [3] was 0.22 mg/dL. For the same molecule, the GLUCOSE [3] was 174 mg/dL, the “LACTATE DEHYDROGENASE” value [3] was 83.33 u/L and the LIPASE [3] was 8.33 u/L. For the same molecule, the PHOSPHORUS [3] was 14.23 mg/dL, the POTASSIUM [3] was 5.88 MEQ/L and the SODIUM [3] was 146.57 MEQ/L. The “TOTAL BILIRUBIN” value [3] was 0.17 mg/dL, the “TOTAL PROTEIN” value [3] was 5.83 G/DL and the “URIC ACID” value [3] was 1.5 mg/dL.
